From ChEMBL document CHEMBL5104197, “Structure-Based Optimization of Coumestan Derivatives as Polyketide Synthase 13-Thioesterase(Pks13-TE) Inhibitors with Improved hERG Profiles for Mycobacterium tuberculosis Treatment” (J Med Chem, 2022)
≈ marks a conversion by molar mass, not a printed value. Calls of active or inactive are those of the source. No cut-off for these calls is given here.

Columns and labels:
[1] = system: Mycobacterium tuberculosis; assay: microbe, parasite or virus in culture; settings: H37Rv, 168 h
[2] = system: Mycobacterium tuberculosis; type: functional, organism-based; settings: H37Rv, dose 100.0 mg/kg, route po, time 7.0 day
[3] = system: Mycobacterium tuberculosis; assay: Binding affinity to wild type Mycobacterium tuberculosis Pks13-TE N1640 expressed in Escherichia coli BL21(DE3) pLysS assessed as change in melting temperature at 1:10 compound to protein ratio by nanoDSF thermal stability analysis
[4] = system: Mycobacterium tuberculosis; type: functional, Vero; settings: V4207, 168 h, time 7 day
[5] = Metabolic stability in human liver microsomes assessed as microsomal intrinsic clearance measured after 60 mins by LC-MS/MS analysis; type: ADME, Microsome; settings: read-out: CLH
[6] = Metabolic stability in human liver microsomes assessed as half-life measured after 60 mins by LC-MS/MS analysis; type: ADME, Microsome
[7] = system: Mycobacterium tuberculosis; assay: Binding affinity to wild type Mycobacterium tuberculosis Pks13-TE N1640 expressed in Escherichia coli BL21(DE3) pLysS assessed as change in melting temperature at 1:5 compound to protein ratio by nanoDSF thermal stability analysis
[8] = system: Mycobacterium tuberculosis; type: functional, organism-based; settings: H37Rv, dose 100.0 mg/kg, route po, time 7.0 day; remark: listed apart in the source
[9] = Cytotoxicity against African green monkey Vero cells; type: toxicity, cell-based, Chlorocebus sabaeus
[10] = Metabolic stability in human liver microsomes assessed as liver intrinsic clearance measured after 60 mins by LC-MS/MS analysis; type: ADME, Microsome; settings: read-out: CLH
[11] = Metabolic stability in human liver microsomes assessed as compound remaining measured after 60 mins by LC-MS/MS analysis; type: ADME, Microsome; settings: read-out: Stability
[12] = Selectivity index, ratio of CC50 for African green monkey Vero cells to MIC90 for Mycobacterium tuberculosis H37Rv; type: toxicity; settings: read-out: Selectivity Index

Row | SMILES | MIC90 [1] [µg/mL] | further results
1 | O=c1oc2cc(O)ccc2c2oc3ccc(O)c(CN4CCC(Br)CC4)c3c12 | 0.125 (≈ 0.281 µM) | 
2 | O=c1oc2cc(O)ccc2c2oc3ccc(O)c(CN4CC[C@H](F)C4)c3c12 | 0.125 (≈ 0.338 µM) | 
3 | O=c1oc2cc(O)ccc2c2oc3ccc(O)c(CN4CCCC(F)(F)C4)c3c12 | > 64 | 
4 | COC(=O)c1c(NC(=O)c2c(F)c(F)c(F)c(F)c2F)sc2c1CCCCC2 |  | MIC [1]: 1 µM (≈ 0.419 µg/mL)
5 | O=c1oc2cc(O)ccc2c2oc3ccc(O)c(CN4CCC(F)CC4)c3c12 | 0.0625 (≈ 0.163 µM) | Activity [2]: Active; ΔTm [3]: 7.6 °C; MIC90 [4]: 0.125 µg/mL (≈ 0.326 µM); CLint scaled [5]: 23.5 mL/min/kg; half-life [6]: 59.5 min; ΔTm [7]: 8.8 °C; Activity [8]: Active; IC50 [9]: 4 µg/mL (≈ 10.4 µM); CLint scaled [10]: 21 mL/min/kg; remaining at 1 h [11]: 47.4%
6 | CO[C@H]1/C=C/O[C@@]2(C)Oc3c(C)c(O)c4c(O)c(c(/C=N/N5CCN(C)CC5)c(O)c4c3C2=O)NC(=O)/C(C)=C\C=C\[C@H](C)[C@H](O)[C@@H](C)[C@@H](O)[C@@H](C)[C@H](OC(C)=O)[C@@H]1C [RIFAMPIN] | 0.125 (≈ 0.152 µM) | 
7 | COc1ccc2c(c1)oc(=O)c1c2oc2ccc(O)c(CN3CCC(F)(F)C3)c21 | > 64 | 
8 | O=c1oc2cc(O)ccc2c2oc3ccc(O)c(CN4CCC(F)(F)C4)c3c12 | > 64 | 
9 | NNC(=O)c1ccncc1 [ISONIAZID] | 0.04 (≈ 0.292 µM) | 
10 | O=c1oc2cc(O)ccc2c2oc3ccc(O)c(CN4CCCC(F)C4)c3c12 (stereo unspecified) | 0.25 (≈ 0.652 µM) | 
11 | O=c1oc2cc(O)ccc2c2oc3ccc(O)c(CN4CC[C@@H](F)C4)c3c12 | 0.5 (≈ 1.35 µM) | 
12 | COc1ccc2c(c1)oc(=O)c1c2oc2ccc(O)c(CN3CCC(F)(F)CC3)c21 | > 64 | 
13 | O=c1oc2cc(O)ccc2c2oc3ccc4c(c3c12)CN(CC1CC1)CO4 | 0.0625 (≈ 0.172 µM) | ΔTm [3]: 5.3 °C; ΔTm [7]: 5.4 °C
14 | O=c1oc2cc(O)ccc2c2oc3ccc(O)c(CNC4CCCCC4)c3c12 | 0.25 (≈ 0.659 µM) | 
15 | COc1ccc2c(c1)oc(=O)c1c2oc2ccc(O)c(CN3CCC(Br)CC3)c21 | > 64 | 
16 | O=c1oc2cc(O)ccc2c2oc3ccc(O)c(CN4CCCCC4)c3c12 | 0.0039 (≈ 0.0107 µM) | ΔTm [3]: 7.2 °C; CLint scaled [5]: 11.5 mL/min/kg; half-life [6]: 120 min; ΔTm [7]: 7 °C; CLint scaled [10]: 10.4 mL/min/kg
17 | O=c1oc2cc(O)ccc2c2oc3ccc(O)c(CN4CCC5(CC4)CC5)c3c12 | 0.25 (≈ 0.639 µM) | 
18 | O=c1oc2cc(O)ccc2c2oc3ccc(O)c(CNCc4ccccc4)c3c12 | 1 (≈ 2.58 µM) | 
19 | CC(C)CCN1COc2ccc3oc4c5ccc(O)cc5oc(=O)c4c3c2C1 | 0.0625 (≈ 0.165 µM) | 
20 | COc1ccc2c(c1)oc(=O)c1c2oc2ccc(O)c(CN3CCC(C)(C)CC3)c21 | 8 (≈ 19.6 µM) | 
21 | O=c1oc2cc(O)ccc2c2oc3ccc(O)c(CN4CCC(F)(F)CC4)c3c12 | 1 (≈ 2.49 µM) | 
22 | CC1(C)CCN(Cc2c(O)ccc3oc4c5ccc(O)cc5oc(=O)c4c23)CC1 | 0.25 (≈ 0.635 µM) | 
23 | O=c1oc2cc(O)ccc2c2oc3ccc4c(c3c12)CN(C1CC1)CO4 | 0.125 (≈ 0.358 µM) | 
24 | O=c1oc2cc(O)ccc2c2oc3ccc4c(c3c12)CN(C1CCCC1)CO4 | 0.0039 (≈ 0.0103 µM) | Activity [2]: Active; ΔTm [3]: 8.4 °C; MIC90 [4]: 0.0078 µg/mL (≈ 0.0207 µM); CLint scaled [5]: < 9.6 mL/min/kg; half-life [6]: > 145 min; selectivity ratio [12]: 32; ΔTm [7]: 8.1 °C; Activity [8]: Active; IC50 [9]: 0.125 µg/mL (≈ 0.331 µM); remaining at 1 h [11]: 80.9%
25 | O=C(c1c(O)ccc2oc3c4ccc(O)cc4oc(=O)c3c12)N1CCCCC1 | > 64 | 
26 | CC(C)CCNCc1c(O)ccc2oc3c4ccc(O)cc4oc(=O)c3c12 | 0.125 (≈ 0.34 µM) | 
27 | CC[C@@H](CO)NCCN[C@@H](CC)CO [ETHAMBUTOL] | 1 (≈ 4.89 µM) | 
28 | O=c1oc2cc(O)ccc2c2oc3ccc(O)c(CNC4CCCC4)c3c12 | 0.0039 (≈ 0.0107 µM) | 
29 | O=C1CCCCN1Cc1c(O)ccc2oc3c4ccc(O)cc4oc(=O)c3c12 | > 64 | 
